Literature values in patent publication US6323203A, “Composition and method for treating diabetes” (Beyer; Camille F., priority 2000, dated 2001).

What was measured:
[1] = oral glucose tolerance test; cited from earlier work
[2] = in vivo; cited from earlier work
[3] = test system: nicotinic acid vasomotor and antilipolytic effect; conditions: cited from earlier work; for effect on vasomotor and antilipolytic effect of nicotinic acid: prior administration of the prostaglandin synthesis inhibitor

Q: What does the source list for `NS(=O)(=O)c1cc2c(cc1Cl)NCNS2(=O)=O` [hydrochlorothiazide]?
A: effect on serum glucose and insulin [1]: increased serum glucose and insulin concentrations; effect on potassium [2]: kaliuresis

Q: Which use in diabetics ([3]; Molnar 1964) does the source give for `O=C(O)c1cccnc1` [nicotinic acid] here?
A: contraindicated for diabetics

Q: And the “effect on triglyceride hydrolysis to FFA and glycerol” value ([3]; in vivo)?
A: inhibits triglyceride hydrolysis to FFA and glycerol

Q: And the “cutaneous vasomotor reaction of nicotinic acid, consequence in patient care” value ([3]; nicotinic acid prescribed in patient care)?
A: sufficiently undesirable as to be the principal cause for lack of compliance

Q: And the “effect on blush area” value ([3]; nicotinic acid)?
A: transiently stimulate

Q: What about the “effect on plasma concentrations of nonesterified fatty acids” value ([3]; nicotinic acid) of the same compound?
A: reduce

Q: And the “onset of cutaneous reaction relative to peak serum concentration” value ([3]; nicotinic acid)?
A: the onset preceded peak serum PZA concentrations, as is the case also for the cutaneous reactions associated with nicotinic acid

Q: With `COc1ccc2c(c1)c(CC(=O)O)c(C)n2C(=O)c1ccc(Cl)cc1` [indomethacin] as the compound, how does the “effect on vasomotor and antilipolytic effect of nicotinic acid” value [3] read?
A: abolish the vasomotor, but not the antilipolytic effect of nicotinic acid

Q: Which “effect on vasomotor and antilipolytic effect of nicotinic acid” value [3] does the source give for `CC(=O)Oc1ccccc1C(=O)O` [aspirin] here?
A: abolish the vasomotor, but not the antilipolytic effect of nicotinic acid
